Results on one molecule are retold here after patent publication US20250214992A1, “HIGH-PURITY COMPOUND PRODUCTION METHOD AND PURIFICATION METHOD” (SANTEN PHARMACEUTICAL CO., LTD., priority 2022, published 2025).

This data set in a line: Ames test. The data set is classed as cell-based. The note with it: impurity contained in the prepared AFDX0250; found in the development stage of a pharmaceutical composition. A general note: The Ames test uses bacterial strains that need an amino acid and regain growth without it when mutated back.

On to `O=C1Nc2cccnc2N(C(=O)CCl)c2ccccc21` [Compound 1, 11-(2-chloroacetyl)-5,11-dihydro-6H-pyrido[2,3-b][1,4]benzodiazepin-6-one], for which the Ames test result was “positive”.
